In brackets after ≈: the same amount, converted by molar mass.
Tests used:
[1] = system: Candida tropicalis; experiment: Inhibition of Candida tropicalis ATCC 750 chitin synthase using UDP-GlcNAc as substrate at 300 ug/ml incubated for 1 hrs by absorbance based assay relative to control; details: dose 300.0 µg/ml
[2] = system: Candida albicans; experiment: Antifungal activity against Candida albicans ATCC 76615 assessed as fungal growth inhibition incubated for 24 hrs by CLSI protocol based broth microdilution method; format: functional
[3] = system: Aspergillus flavus; experiment: Antifungal activity against Aspergillus flavus ATCC 16870 assessed as fungal growth inhibition incubated for 24 hrs by CLSI protocol based broth microdilution method; format: functional
[4] = system: Aspergillus fumigatus; experiment: Antifungal activity against Aspergillus fumigatus GIMCC 3.19 assessed as fungal growth inhibition incubated for 24 hrs by CLSI protocol based broth microdilution method; format: functional
[5] = system: Cryptococcus neoformans; experiment: Antifungal activity against Cryptococcus neoformans ATCC 208821 assessed as fungal growth inhibition incubated for 24 hrs by CLSI protocol based broth microdilution method; format: functional

| Compound | inhibition [1] [%] | MIC [2] [µg/mL] | MIC [3] [µg/mL] | MIC [4] [µg/mL] | MIC [5] [µg/mL] |
| --- | --- | --- | --- | --- | --- |
| COc1ccc2c(c1)C1(CCN(C(=O)CCC(=O)Nc3ccc(Br)cc3)CC1)OC(=O)N2 | 23 | 107 (≈ 212 µM) | 256 (≈ 510 µM) | 512 (≈ 1020 µM) | 256 (≈ 510 µM) |
| COc1ccc2c(c1)C1(CCN(C(=O)CC(=O)Nc3ccccc3)CC1)OC(=O)N2 | 16 | 512 (≈ 1250 µM) | 256 (≈ 625 µM) | > 512 | 256 (≈ 625 µM) |
| COc1ccc2c(c1)C1(CCN(C(=O)CC(=O)Nc3ccc(C)cc3)CC1)OC(=O)N2 | 13 | 512 (≈ 1210 µM) | > 512 | > 512 | > 512 |
| COc1cccc(NC(=O)/C=C/C(=O)N2CCC3(CC2)OC(=O)Nc2ccc(OC)cc23)c1 | 37 | 256 (≈ 567 µM) | 128 (≈ 284 µM) | 128 (≈ 284 µM) | 64 (≈ 142 µM) |
| COc1ccc(NC(=O)CC(=O)N2CCC3(CC2)OC(=O)Nc2ccc(OC)cc23)cc1 | 16 | 512 (≈ 1170 µM) | > 512 | 256 (≈ 583 µM) | > 512 |
| COc1ccc2c(c1)C1(CCN(C(=O)C(O)C(O)C(=O)Nc3ccc(Br)cc3)CC1)OC(=O)N2 (stereo not given) | 43 | > 512 | 512 (≈ 958 µM) | > 512 | 512 (≈ 958 µM) |
| COc1ccc2c(c1)C1(CCN(C(=O)/C=C/C(=O)Nc3ccc(C(F)(F)F)cc3)CC1)OC(=O)N2 | 15 | 512 (≈ 1050 µM) | 128 (≈ 262 µM) | > 512 | 256 (≈ 523 µM) |
| COc1ccc(NC(=O)C(O)C(O)C(=O)N2CCC3(CC2)OC(=O)Nc2ccc(OC)cc23)cc1 (stereo not given) | 52 | > 512 | 512 (≈ 1050 µM) | 256 (≈ 527 µM) | > 512 |

The next lines start with the values.

| inhibition [1] [%] | MIC [2] [µg/mL] | MIC [3] [µg/mL] | MIC [4] [µg/mL] | MIC [5] [µg/mL] | Compound |
| --- | --- | --- | --- | --- | --- |
| 34 | 128 (≈ 274 µM) | 256 (≈ 549 µM) | 107 (≈ 229 µM) | 256 (≈ 549 µM) | COc1ccc2c(c1)C1(CCN(C(=O)/C=C/C(=O)Nc3cccc([N+](=O)[O-])c3)CC1)OC(=O)N2 |
| 46 | 256 (≈ 543 µM) | > 512 | > 512 | 256 (≈ 543 µM) | COc1ccc2c(c1)C1(CCN(C(=O)/C=C/C(=O)Nc3cccc4ccccc34)CC1)OC(=O)N2 |
| 18 | 512 (≈ 1100 µM) | 512 (≈ 1100 µM) | 256 (≈ 549 µM) | 256 (≈ 549 µM) | COc1ccc2c(c1)C1(CCN(C(=O)/C=C/C(=O)Nc3ccccc3[N+](=O)[O-])CC1)OC(=O)N2 |
| 41 | 512 (≈ 1120 µM) | 512 (≈ 1120 µM) | 512 (≈ 1120 µM) | > 512 | COc1ccc2c(c1)C1(CCN(C(=O)C(O)C(O)C(=O)Nc3ccccc3)CC1)OC(=O)N2 (stereo not given) |
| 18 | 512 (≈ 1050 µM) | 256 (≈ 524 µM) | 256 (≈ 524 µM) | 256 (≈ 524 µM) | COc1ccc2c(c1)C1(CCN(C(=O)CC(=O)Nc3ccc(Br)cc3)CC1)OC(=O)N2 |
| 6 | > 512 | 256 (≈ 605 µM) | > 512 | > 512 | COc1ccc2c(c1)C1(CCN(C(=O)CCC(=O)Nc3ccccc3)CC1)OC(=O)N2 |
| 16 | 512 (≈ 1140 µM) | 512 (≈ 1140 µM) | > 512 | > 512 | COc1ccc2c(c1)C1(CCN(C(=O)/C=C/C(=O)Nc3cc(C)cc(C)c3)CC1)OC(=O)N2 |
| 42 | 256 (≈ 588 µM) | > 512 | > 512 | > 512 | COc1ccc2c(c1)C1(CCN(C(=O)/C=C/C(=O)Nc3cccc(C)c3)CC1)OC(=O)N2 |
| 43 | > 512 | > 512 | 256 (≈ 545 µM) | > 512 | COc1ccc2c(c1)C1(CCN(C(=O)C(O)C(O)C(=O)Nc3ccc(C)cc3)CC1)OC(=O)N2 (stereo not given) |
| 30 | 256 (≈ 459 µM) | > 512 | > 512 | > 512 | COc1ccc2c(c1)C1(CCN(C(=O)/C=C/C(=O)Nc3ccc(C(F)(F)F)cc3C(F)(F)F)CC1)OC(=O)N2 |

Source: ChEMBL document CHEMBL5331050, “Spiro[benzoxazine-piperidin]-one derivatives as chitin synthase inhibitors and antifungal agents: Design, synthesis and biological evaluation” (Eur J Med Chem, 2022)
